In patent publication EP4775570A1, “CYP11A1 INHIBITOR, PREPARATION METHOD THEREFOR AND USE THEREOF” (Shenzhen Zhongge Biological Technology Co., Ltd., priority 2023, dated 2025):

Molecular target: T1, CYP11A1 (Homo sapiens, UniProt P05108)
T1 construct: host or cells: NCI-H295R
T1 sequence (P05108 40-521): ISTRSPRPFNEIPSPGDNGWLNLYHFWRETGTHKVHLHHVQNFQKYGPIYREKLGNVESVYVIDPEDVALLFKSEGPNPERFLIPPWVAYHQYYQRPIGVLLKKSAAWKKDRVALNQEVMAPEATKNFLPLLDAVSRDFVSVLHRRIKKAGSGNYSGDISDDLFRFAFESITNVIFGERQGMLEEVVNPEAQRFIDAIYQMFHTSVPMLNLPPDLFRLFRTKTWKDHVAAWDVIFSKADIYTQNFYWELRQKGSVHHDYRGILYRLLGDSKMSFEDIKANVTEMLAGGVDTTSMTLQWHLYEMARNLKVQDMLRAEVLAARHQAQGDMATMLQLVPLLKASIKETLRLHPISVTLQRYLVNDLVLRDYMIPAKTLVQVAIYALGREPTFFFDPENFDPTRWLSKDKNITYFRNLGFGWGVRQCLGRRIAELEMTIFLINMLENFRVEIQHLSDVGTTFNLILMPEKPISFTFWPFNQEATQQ
Test: NCI-H295R cellular pregnenolone biosynthesis inhibition assay (ELISA method)
Type: cell-based
Details: NCI-H295R cells, 3 days incubation, pregnenolone in cell supernatant by ELISA; read-out: IC50
Description: The experiment aims to test the inhibitory effect of the compounds of the present disclosure on cellular pregnenolone biosynthesis, and to assess the inhibitory effect of the compounds on CYP11A1 target based on their IC50 values.
NCI-H295R cells (MINGZHOUBIO, MZ-2138) cultured in NCI-H295R complete medium (MINGZHOUBIO, MCM-0399).
Using culture medium, NCI-H295R cells were seeded into a new 384-well cell culture plate (Greiner, 781091) at a density of 5,000 cells per well, with 45µL of cell suspension per well. The test compounds were prepared by adding 5µL of compound solution at 10× concentration to each well, to a maximum final concentration of 10µM, followed by 3× serial dilution for 10 points, with a final DMSO concentration of 0.1%, centrifuging at 1,000 rpm for 1 minute at room temperature, and then incubating in a 5% CO2 cell incubator at 37°C for 3 days.
Pregnenolone ELISA kit (Abnova, KA1912) was used for detecting the content of pregnenolone in the supernatant of cell culture. Before detection, the reagents were allowed to come back to room temperature for 1 hour. After taking out the 384-well plate, the cellular supernatant was pipetted and subjected to 5× dilution with the Assay Buffer provided in the kit. A working solution of competitive molecule and a washing solution in accordance with the instructions was prepared. 50µL of diluted cellular supernatant were pipetted into the 96-well plate provided in the ELISA kit, added with 100µL of working solution of competitive molecule per well and the plate was incubated at room temperature for 1.5 hours. After discarding the liquid, the plate was washed with 300µL of washing solution per well three times and dried. After adding 150 µL of substrate chromogenic solution per well, the plate was incubated at room temperature for 10-15 minutes. After adding 50 µL of termination solution per well, the plate was incubated at room temperature for 10-15 minutes and read for absorbance at 450nm with Envision HTS Multilabel Reader.
The wells added with 1µM ODM-208 were defined as 100% inhibition (positive control), the wells containing DMSO at a final concentration of 0.1% were defined as 0% inhibition (negative control), and inhibitory ratio = (absorbance of tested sample - average absorbance of negative control)/(average absorbance of positive control - average absorbance of negative control)*100%. The data were subjected to four-parameter fitting using GraphPad Prism to calculate the IC50 values of the compounds.

| IC50 [nM] | SMILES |
| --- | --- |
| > 300 | COc1cc(OCC2CCN(S(C)(=O)=O)CC2)c(F)cc1CN1Cc2ccccc2C1 [compound 23] |
| < 100 | Cn1c(CN2Cc3ccccc3C2)c(F)cc(C=CC2CCN(S(C)(=O)=O)CC2)c1=O [compound 104] |
| < 100 | CS(=O)(=O)N1CCC(CCc2ccc(CN3Cc4ccccc4C3)cc2Cl)CC1 [compound 84] |
| < 100 | CS(=O)(=O)N1CCC(COc2ccc(CN3Cc4ccccc4C3)cc2Cl)CC1 [compound 16] |
| < 100 | CS(=O)(=O)N1CCC(COc2ccc(CN3Cc4ccccc4C3)cc2Br)CC1 [compound 17] |
| > 300 | COc1cc(CN2Cc3ccccc3C2)ccc1COC1CCN(S(C)(=O)=O)CC1 [compound 42] |
| < 100 | [2H]C([2H])([2H])n1c(CN2Cc3ccccc3C2)c(F)cc(CCC2CCN(S(C)(=O)=O)CC2)c1=O [compound 106] |
| 100 to 300 | COc1cc(CN2Cc3ccccc3C2)ccc1OCC1CCN(S(C)(=O)=O)CC1 [compound 19] |
| < 100 | COc1cc(CN2Cc3ccccc3C2)ccc1CCC1CCN(C(=O)C(C)(C)C)CC1 [compound 81] |
| < 100 | Cn1c(CN2Cc3ccccc3C2)c(F)cc(CCN2CCN(C(=O)OC(C)(C)C)CC2)c1=O [compound 129] |
| < 100 | COc1c(CCC2CCN(S(C)(=O)=O)CC2)ccc(CN2Cc3ccccc3C2)c1F [compound 85] |
| > 300 | COc1cc(CN2Cc3ccccc3C2)ccc1Oc1cccc2c1CCN(S(C)(=O)=O)C2 [compound 45] |
| < 100 | CCS(=O)(=O)N1CCC(CCc2ccc(CN3Cc4ccccc4C3)cc2OC)CC1 [compound 67] |
| < 100 | C=Cc1cc(CN2Cc3ccccc3C2)ccc1OCC1CCN(S(C)(=O)=O)CC1 [compound 26] |
| < 100 | CS(=O)(=O)N1CCC(COc2ccc(CN3Cc4ccccc4C3)cc2O)CC1 [compound 18] |
| > 300 | CC(C)(C)OC(=O)N1CCC2(CCN(c3ccc(CN4Cc5ccccc5C4)cc3F)CC2)C1 [compound 51] |
| > 300 | CS(=O)(=O)N1CCC(COc2ccc(CN3Cc4ccccc4C3)cc2-c2nccs2)CC1 [compound 38] |
| > 300 | CS(=O)(=O)N1CCC(CCn2ccc(CN3Cc4ccccc4C3)cc2=O)CC1 [compound 5] |
| > 300 | Cn1c(CN2Cc3ccccc3C2)c(F)cc(-c2ccc3c(n2)CCN(S(C)(=O)=O)C3)c1=O [compound 127] |
| 100 to 300 | CC(=O)N1CCN(CCc2cc(F)c(CN3Cc4ccccc4C3)n(C)c2=O)CC1 [compound 119] |
| 100 to 300 | CS(=O)(=O)N1CCC(C=Cc2cc(F)c(CN3Cc4ccccc4C3)cc2C#N)CC1 [compound 61] |
| < 100 | COc1cc(CN2Cc3ccccc3C2)ccc1CCC1CCN(C(C)=O)CC1 [compound 70] |
| < 100 | Cn1c(CN2Cc3ccccc3C2)c(F)cc(-c2cnc3c(c2)CCN(S(C)(=O)=O)C3)c1=O [compound 126] |
| < 100 | CC1CC(CCc2cc(F)c(CN3Cc4ccccc4C3)n(C)c2=O)CCN1C(=O)OC(C)(C)C (stereo not drawn) [compound 117] |
| 100 to 300 | COc1cc(CN2Cc3ccccc3C2)ccc1CCC1(O)CCN(S(C)(=O)=O)CC1 [compound 92] |
| < 100 | COc1cc(CN2Cc3ccccc3C2)c(F)cc1OCC1CCN(S(C)(=O)=O)CC1 [compound 22] |
| 100 to 300 | CCOc1cc(CN2Cc3ccccc3C2)ccc1CCC1CCN(S(C)(=O)=O)CC1 [compound 73] |

System: not listed separately
Test: PK study, intravenous and oral administration, plasma LC-MS/MS
Type: in vivo
Details: both sexes, 5 mg/kg, oral administration of 5 mpk, species not given (ICR mice or SD Rat)
Description: ICR mice (male/female, total 6 animals) were assigned to two groups for oral administration and intravenous administration, respectively, with 3 mice in each group. Before administration, the animals were fasted for 10-14 hours, with water available ad lib.
SD Rat (male/female, total 6 animals) were assigned to two groups for oral administration and intravenous administration, respectively, with 3 mice in each group. Before administration, the animals were fasted for 10-14 hours, with water available ad lib.
The compounds to be tested were weighed out in accordance with intended dosage, formulated with vehicles (5% DMSO + 10% Solutol + 85% physiological saline) to dosage form at appropriate concentrations (administered intravenously and orally in rats or mice at a volume of 5 mL/kg and 10 mL/kg, respectively). The dosage form for intravenous injection is a clear solution, and the dosage form for oral administration is a clear solution or homogenous suspension.
Administration to animals was conducted through intravenous injection and oral gavage, and blood samples were collected at 0.033, 0.083, 0.25, 0.5, 1, 2, 4, 8, and 24 hours after intravenous injection, or at 0.083, 0.25, 0.5, 1, 2, 4, 6, 8, and 24 hours after oral administration. After centrifugation of whole blood samples at 4°C and 6,800g for 6 minutes, the upper layers of plasma were stored at -80°C refrigerator before analysis.
The DMSO stock solutions of the substance to be tested were diluted with methanol or acetonitrile solution to serial working solutions and added to blank plasma matrix to formulate samples for standard curve and quality control. An appropriate volume of plasma sample was added with appropriate fold of methanol or acetonitrile containing internal standards, according to response, for protein precipitation. After centrifugation of all samples at 4°C and 18,000g for 10 min, appropriate volumes of supernatant were taken for LC-MS/MS analysis.
Plasma drug concentration-time curves were plotted in accordance with tested concentrations, and pharmacokinetic parameters were calculated based on non-compartmental model using WinNonlin software, including half-life (T1/2), area under the drug concentration-time curve (AUC0-t), clearance rate (CL), steady-state distribution volume (Vss), bioavailability (F), etc.

| AUC [ng·h/mL] | Cmax [ng/mL] | SMILES |
| --- | --- | --- |
| > 1700 | > 1000 | Cn1c(CN2Cc3ccccc3C2)c(F)cc(C=CC2CCN(S(C)(=O)=O)CC2)c1=O [compound 113] |

Same assay, conditions: both sexes, 5 mg/kg, oral administration of 5 mpk, species not given (ICR mice or SD Rat), read-out: bioavailability (F)

| bioavailability [%] | SMILES |
| --- | --- |
| > 60 | Cn1c(CN2Cc3ccccc3C2)c(F)cc(C=CC2CCN(S(C)(=O)=O)CC2)c1=O [compound 113] |
